Measured values taken from PMC5584945, “Evaluation of robenidine analog NCL195 as a novel broad-spectrum antibacterial agent” (PLoS ONE, 2017).
≈ marks a conversion by molar mass, not a printed value.

How the values were obtained:
[1] = tested on: vancomycin-resistant enterococci (VRE); assay: MIC, broth micro-dilution (CLSI); assay type: cell-based, enterococci (porcine isolates)
[2] = tested on: S. aureus Xen29; assay: Time-dependent killing assay; assay type: cell-based, Staphylococcus aureus
Experimental: Time kill assays were performed (in duplicate) essentially as described previously with slight modifications. Briefly, a few colonies of luminescent S. pneumoniae strain D39LUX or luminescent S. aureus ATCC 12600 (Xen29) from an overnight HBA were emulsified in normal saline and adjusted to A600 nm = 0.10 (equivalent to approx. 5 × 10^7 c.f.u. per ml) and the bacterial suspension further diluted 1:20 in saline. […] The compounds were serially diluted in 100% DMSO at 100× the final desired concentration and 100 μl of appropriate concentrations added to each 10 ml preparation. Duplicate cultures were incubated at 37°C (+ 5% CO2 for S. pneumoniae D39), with samples withdrawn at 0, 0.5, 1, 2, 4, 6, 8 and 24 h, serially diluted 10-fold and plated on HBA overnight at 37°C (+ 5% CO2 for S. pneumoniae D39) for bacterial enumeration.

[3] = Kinetic solubility by nephelometry; assay type: physicochemical; details: kinetic from dmso stock
[4] = tested on: Caco-2; assay: In vitro cytotoxicity, WST-1; assay type: cell-based; details: Homo sapiens, 24 h exposure, read-out: IC50 values ± SEM
Description: (§1) In order to ensure minimal off target mammalian cell cytotoxicity, we assayed NCL812, NCL195 and NCL219 for in vitro cytotoxicity using a panel of adherent mammalian cell lines: Caco-2 (human colorectal adenocarcinoma cell line), HEL 299 (non-cancerous human lung fibroblast cell line), Hep G2 (human hepatocellular carcinoma cell line), MDBK (normal bovine kidney cell line) and MCF7 (human mammary gland adenocarcinoma cell line). Cell lines were maintained in Dulbecco’s Modified Eagle’s Medium (DMEM; […] After 24 h incubation, media was removed, washed once with medium without antibiotics and fresh medium supplemented with 10% (vol/vol) FBS was added. […] Following exposure for 24 h, WST-1 reagent was added to each well at a final concentration of 10%. […] The IC50 value for each compound against each cell line was determined via non-linear regression (three parameters) using GraphPad Prism v6 software. The robustness of assays was confirmed with selected cell lines (Hep G2 and MDBK) seeded onto a 96–well Microwell Nunclon Delta Surface plate (Thermo Scientific Nunc; Cat No: 136101) at 5 × 10^4 cells per well.

[5] = tested on: HEL 299; assay: In vitro cytotoxicity, WST-1; assay type: cell-based; details: Homo sapiens, 24 h exposure, read-out: IC50 values ± SEM
Description: as §1

[6] = tested on: Hep G2; assay: In vitro cytotoxicity, WST-1; assay type: cell-based; details: Homo sapiens, HepG2; 24 h exposure; read-out: IC50 values ± SEM
Description: as §1

[7] = tested on: MCF7; assay: In vitro cytotoxicity, WST-1; assay type: cell-based; details: Homo sapiens, 24 h exposure, read-out: IC50 values ± SEM
Description: as §1

[8] = tested on: MDBK; assay: Real-time cell viability, RealTime-Glo MT; assay type: cell-based, bovine; details: 2 or 8 μg/ml, up to 20 h post-treatment
Description: as §1

[9] = Enterococcus, VRE, S3 Table isolates, absence of FBS

Cc1ccc(/C=N/Nc2cc(N/N=C/c3ccc(C)cc3)nc(N)n2)cc1 [NCL195, 4,6-bis(2-((E)-4-methylbenzylidene)hydrazinyl)pyrimidin-2-amine]
MIC90 ([1]; Enterococcus, VRE, S3 Table isolates, 10% FBS): 32 µg/mL (≈ 89 µM) | MIC50 [1, 9]: 2 µg/mL (≈ 5.56 µM) | MIC90 [1, 9]: 4 µg/mL (≈ 11.1 µM) | MIC ([1]; Enterococcus, VRE, VRE 1 (49 FR), 10% FBS): 16 µg/mL (≈ 44.5 µM) | MIC ([1]; Enterococcus, VRE, VRE 1 (49 FR), absence of FBS): 4 µg/mL (≈ 11.1 µM) | MIC ([1]; Enterococcus, VRE, VRE 2 (53 FR), 10% FBS): 16 µg/mL (≈ 44.5 µM) | MIC ([1]; Enterococcus, VRE, VRE 2 (53 FR), absence of FBS): 2 µg/mL (≈ 5.56 µM) | MIC ([1]; Enterococcus, VRE, VRE 3 (55 FR), 10% FBS): 16 µg/mL (≈ 44.5 µM) | MIC ([1]; Enterococcus, VRE, VRE 3 (55 FR), absence of FBS): 2 µg/mL (≈ 5.56 µM) | MIC ([1]; Enterococcus, VRE, VRE 4 (57 FR), 10% FBS): 16 µg/mL (≈ 44.5 µM) | MIC ([1]; Enterococcus, VRE, VRE 4 (57 FR), absence of FBS): 2 µg/mL (≈ 5.56 µM) | MIC ([1]; Enterococcus, VRE, VRE5 (58 FR), 10% FBS): 32 µg/mL (≈ 89 µM) | MIC ([1]; Enterococcus, VRE, VRE5 (58 FR), absence of FBS): 4 µg/mL (≈ 11.1 µM) | MIC ([1]; Enterococcus, VRE, VRE 6 (59 FR), 10% FBS): 16 µg/mL (≈ 44.5 µM) | MIC ([1]; Enterococcus, VRE, VRE 6 (59 FR), absence of FBS): 4 µg/mL (≈ 11.1 µM) | MIC ([1]; Enterococcus, VRE, VRE 7 (270 G), 10% FBS): 32 µg/mL (≈ 89 µM) | MIC ([1]; Enterococcus, VRE, VRE 7 (270 G), absence of FBS): 4 µg/mL (≈ 11.1 µM) | MIC ([1]; Enterococcus, VRE, VRE 8 (277 G), 10% FBS): 32 µg/mL (≈ 89 µM) | MIC ([1]; Enterococcus, VRE, VRE 8 (277 G), absence of FBS): 4 µg/mL (≈ 11.1 µM) | MIC ([1]; Enterococcus, VRE, VRE 9 (61 FR), 10% FBS): 16 µg/mL (≈ 44.5 µM) | MIC ([1]; Enterococcus, VRE, VRE 9 (61 FR), absence of FBS): 4 µg/mL (≈ 11.1 µM) | MIC ([1]; Enterococcus, VRE, VRE 10 (62 FR), 10% FBS): 16 µg/mL (≈ 44.5 µM) | MIC ([1]; Enterococcus, VRE, VRE 10 (62 FR), absence of FBS): 4 µg/mL (≈ 11.1 µM) | MIC ([1]; Enterococcus, VRE, VRE 11 (284 G), 10% FBS): 16 µg/mL (≈ 44.5 µM) | MIC ([1]; Enterococcus, VRE, VRE 11 (284 G), absence of FBS): 4 µg/mL (≈ 11.1 µM) | MIC ([1]; Enterococcus, VRE, VRE 12 (290 G), 10% FBS): 16 µg/mL (≈ 44.5 µM) | MIC ([1]; Enterococcus, VRE, VRE 12 (290 G), absence of FBS): 2 µg/mL (≈ 5.56 µM) | MIC ([1]; Enterococcus, VRE, VRE 13 (251 G), 10% FBS): 16 µg/mL (≈ 44.5 µM) | MIC ([1]; Enterococcus, VRE, VRE 13 (251 G), absence of FBS): 2 µg/mL (≈ 5.56 µM) | MIC ([1]; Enterococcus, VRE, VRE 14 (252 G), 10% FBS): 32 µg/mL (≈ 89 µM) | MIC ([1]; Enterococcus, VRE, VRE 14 (252 G), absence of FBS): 2 µg/mL (≈ 5.56 µM) | MIC ([1]; Enterococcus, VRE, VRE 15 (63 FR), 10% FBS): 16 µg/mL (≈ 44.5 µM) | MIC ([1]; Enterococcus, VRE, VRE 15 (63 FR), absence of FBS): 2 µg/mL (≈ 5.56 µM) | MIC ([1]; Enterococcus, VRE, VRE 16 (60 FR), 10% FBS): 16 µg/mL (≈ 44.5 µM) | MIC ([1]; Enterococcus, VRE, VRE 16 (60 FR), absence of FBS): 2 µg/mL (≈ 5.56 µM) | MIC ([1]; Enterococcus, VRE, VRE 17 (45 FR), 10% FBS): 32 µg/mL (≈ 89 µM) | MIC ([1]; Enterococcus, VRE, VRE 17 (45 FR), absence of FBS): 2 µg/mL (≈ 5.56 µM) | MIC ([1]; Enterococcus, VRE, VRE 18 (69 W), 10% FBS): 16 µg/mL (≈ 44.5 µM) | MIC ([1]; Enterococcus, VRE, VRE 18 (69 W), absence of FBS): 2 µg/mL (≈ 5.56 µM) | MIC ([1]; Enterococcus, VRE, VRE 19 (70 W), 10% FBS): 16 µg/mL (≈ 44.5 µM) | MIC ([1]; Enterococcus, VRE, VRE 19 (70 W), absence of FBS): 2 µg/mL (≈ 5.56 µM) | MIC ([1]; Enterococcus, VRE, VRE 20 (78 W), 10% FBS): 32 µg/mL (≈ 89 µM) | MIC ([1]; Enterococcus, VRE, VRE 20 (78 W), absence of FBS): 4 µg/mL (≈ 11.1 µM) | MIC range ([1]; S3 Table isolates, 10% FBS): 16 to 32 µg/mL | MIC range ([1]; S3 Table isolates, absence of FBS): 2 to 4 µg/mL | Time to clear all Xen29 ([2]; 2× MIC): 6 h | Time to clear all Xen29 ([2]; 4× MIC): 6 h | Regrowth after 24 h ([2]; at the concentrations tested (2× and 4× MIC)): some S. aureus regrowth was observed | solubility ([3]; pH 2.0): 3.1 to 6.3 µg/mL (≈ 8.62 to 17.5 µM) | solubility ([3]; pH 6.5): < 1.6 µg/mL | IC50 [4]: 12.8 ± 0.1 µg/mL (≈ 35.6 µM) | IC50 [5]: 10.9 ± 0.2 µg/mL (≈ 30.3 µM) | IC50 [6]: 12 ± 0.1 µg/mL (≈ 33.4 µM) | IC50 [7]: 40.1 ± 0.2 µg/mL (≈ 112 µM) | Effect on cell viability (real-time) [8]: no measurable effect on cell viability
